± gives the expanded uncertainty stated by the source.

For the data set the following is noted: 101.33 kPa, Liquid, Vibrating tube method.

Regarding `CCC[N+](C)(C)CC.O=S(=O)([N-]S(=O)(=O)C(F)(F)F)C(F)(F)F`, the mass density was determined as 1420.02 ± 0.63 kg/m3 (278.15 K); 1415.26 ± 0.62 kg/m3 (283.15 K); 1410.6 ± 0.62 kg/m3 (288.15 K); 1405.96 ± 0.61 kg/m3 (293.15 K); 1401.26 ± 0.61 kg/m3 (298.15 K); 1396.46 ± 0.6 kg/m3 (303.15 K). The mass density is given as 1391.81 ± 0.6 kg/m3 (308.15 K); 1387.91 ± 0.59 kg/m3 (313.15 K); 1383.36 ± 0.59 kg/m3 (318.15 K); 1379.82 ± 0.58 kg/m3 (323.15 K); 1375.4 ± 0.6 kg/m3 (328.15 K); 1370.97 ± 0.58 kg/m3 (333.15 K). Moreover, the mass density was determined as 1366.49 ± 0.58 kg/m3 (338.15 K), 1361.67 ± 0.57 kg/m3 (343.15 K), 1357.66 ± 0.56 kg/m3 (348.15 K) and 1353.3 ± 0.56 kg/m3 (353.15 K).

For the molecule `CCN(CC)c1c(N(CC)CC)[c+]1N(CC)CC.N#C[N-]C#N` [1,2,3-tris(diethylamino)-cyclopropenylium dicyanoamide], the mass density is recorded as 1016.38 ± 1.9 kg/m3 (278.15 K); 1013.27 ± 1.9 kg/m3 (283.15 K); 1010.14 ± 1.9 kg/m3 (288.15 K); 1007 ± 1.9 kg/m3 (293.15 K); 1003.91 ± 1.9 kg/m3 (298.15 K); 1000.79 ± 1.9 kg/m3 (303.15 K). Also, the mass density stood at 997.7 ± 1.9 kg/m3 (308.15 K); 994.62 ± 1.9 kg/m3 (313.15 K); 991.55 ± 1.9 kg/m3 (318.15 K); 988.5 ± 1.9 kg/m3 (323.15 K); 985.46 ± 1.8 kg/m3 (328.15 K); 982.43 ± 1.8 kg/m3 (333.15 K). In addition, the mass density came to 979.41 ± 1.8 kg/m3 (338.15 K), 976.41 ± 1.8 kg/m3 (343.15 K), 973.4 ± 1.8 kg/m3 (348.15 K) and 970.42 ± 1.8 kg/m3 (353.15 K).

One may read the mass density as mass per unit of volume.

These data come from the NIST ThermoML archive (doi:10.1016/j.fluid.2014.05.021).
